Measured values as given in article PMC6918900, “Concentration-Dependent Activity of Hydromethylthionine on Cognitive Decline and Brain Atrophy in Mild to Moderate Alzheimer’s Disease” (Journal of Alzheimer's Disease, 2019).
Where “and” joins values, the source holds several entries; their conditions need not be identical. Equal values may be shown once. Read-outs that look alike come from different tables or passages of the source.

Experiments:
[1] = tested on: tangle filaments isolated from AD brain tissues; parameters: method as in PMID 25759392, PMID 8855335; settings: at a similar molar ratio (tau:LMT 1 : 0.1); cited from earlier work
autophagy = tested on: autophagy; parameters: method as in PMID 26572258, PMID 22361619; settings: cited from earlier work
electron transfer chain = tested on: electron transfer chain; parameters: method as in PMID 17928358, PMID 22419586; settings: supplementary electron carrier in the electron transfer chain; cited from earlier work
[2] = tested on: tau transgenic mouse models; settings: dose of 9 mg/kg/day; cited from earlier work
[3] = Estimated steady state brain concentration of LMT; parameters: species or system human; settings: corresponding to 0.3–0.8 ng/ml in plasma
[4] = elderly humans; cited from earlier work
[5] = mice; cited from earlier work
[6] = earlier Phase II study; cited from earlier work

CN(C)c1ccc2nc3ccc(=[N+](C)C)cc-3sc2c1 [MT moiety, methylthioninium]
effect on proteolytic stability of tangle filaments [1]: reverse the proteolytic stability of tangle filaments | concentration range enhancing autophagy (autophagy): 10 to 20 nM | concentrations enhancing mitochondrial activity (electron transfer chain): 10 to 100 nM

CN(C)c1ccc2c(c1)Sc1cc(N(C)C)ccc1N2 [LMT, leuco-methylthioninium]
effect on tau aggregation pathology and behavioral deficits [2]: reduces tau aggregation pathology and associated behavioral deficits | estimated steady state concentration in the brain [3]: 6–16 ng/ml and 0.021–0.056 μM | half-life [4]: 37 h | half-life [5]: 4 h

CN(C)c1ccc2nc3ccc(=[N+](C)C)cc-3sc2c1 [MTC, methylthioninium chloride]
minimum effective dose [6]: 138 mg/day
